The target in one assay is T1, PDK1 kinase (Homo sapiens, UniProt O15530).
T1 sequence (O15530 1-556): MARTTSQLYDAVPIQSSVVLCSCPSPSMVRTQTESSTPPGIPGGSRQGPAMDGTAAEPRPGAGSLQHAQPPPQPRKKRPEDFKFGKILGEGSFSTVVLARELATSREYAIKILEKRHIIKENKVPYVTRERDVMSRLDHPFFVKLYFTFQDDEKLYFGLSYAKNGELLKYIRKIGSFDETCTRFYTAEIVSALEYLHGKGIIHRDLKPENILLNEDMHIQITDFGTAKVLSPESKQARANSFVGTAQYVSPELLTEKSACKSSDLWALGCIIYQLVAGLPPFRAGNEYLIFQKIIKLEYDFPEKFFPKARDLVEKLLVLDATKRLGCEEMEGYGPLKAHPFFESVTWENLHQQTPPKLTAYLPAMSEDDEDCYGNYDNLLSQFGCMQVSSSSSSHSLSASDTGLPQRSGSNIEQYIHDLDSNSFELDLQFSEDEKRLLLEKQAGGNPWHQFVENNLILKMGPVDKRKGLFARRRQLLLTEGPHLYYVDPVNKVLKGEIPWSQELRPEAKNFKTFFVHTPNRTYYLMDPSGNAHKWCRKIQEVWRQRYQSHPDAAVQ
Kind of assay: PDK1 Kinase Alpha Screen Assay. The class given is biochemical. As to conditions: read-out: PDK1 IC50. In short, it runs like this: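 AlphaScreen readout: phospho-peptide captured by phospho-(Ser/Thr) PKA substrate antibody (0.3 mg/ml) on protein A acceptor beads, biotin peptide on streptavidin donor beads (25 μg/ml each), overnight at room temperature. Kinase step used 50 nM PDK1-4 peptide, 10 uM ATP, 3-18 hours.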

A further assay deals with PC-3 cells. Put plainly: Cell Proliferation Assay (Cell Titer Glo), PC-3 cell line. The class given is cell-based. As to conditions: Homo sapiens, read-out: CPEC50 PC3. In short, it runs like this:
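Cell Titer Glo luminescence, read after fresh medium replaced the dosing medium, gave viability of PC-3 cells plated at 1000 cells/well. Compounds, 1:3 serially diluted in DMSO at 500× and then in medium, were added after 3-5 h adhesion and incubated 3 days at 37° C.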

The mark [1] stands for this setting: PC-3, Cell Proliferation Assay, PC3.
[2] abbreviates: PC-3, Cell Proliferation Assay, PC3 cells.

Read-outs that look alike come from different tables or passages of the source. Where only a bound is given, the exact number is not on record here.

Turning to `NC1CCN(c2ccc(Cl)c3cnc(Nc4ccc(C(=O)N5CCOCC5)cc4)nc23)CC1` [Compound 694, (4-(8-(4-aminopiperidin-1-yl)-5-chloroquinazolin-2-ylamino)phenyl)(morpholino)methanone], the IC50 on PDK1 kinase (PDK1 Kinase Alpha Screen Assay) was below 5 µM. In the assay with PC-3 cells (setting [1]), the EC50 is below 5 µM.

On to `CC(C)N1CCC(Nc2ccc(Cl)c3cnc(Nc4ccc(C(=O)N5CCOCC5)cc4)nc23)CC1` [Compound 695, (4-(5-chloro-8-(1-isopropylpiperidin-4-ylamino)quinazolin-2-ylamino)phenyl)(morpholino)methanone], for which the IC50 on PDK1 kinase (PDK1 Kinase Alpha Screen Assay) was below 5 µM. Also, in the assay on PC-3 cells (setting [1]), the EC50 lay in the range of 5 to 10 µM.

On to `C#Cc1cc(OC2CCN(C(C)C)CC2)c2nc(Nc3cccc(N4CCOCC4)c3)ncc2c1` [Compound 697, 6-ethynyl-8-(1-isopropylpiperidin-4-yloxy)-N-(3-morpholinophenyl)quinazolin-2-amine], for which the IC50 at PDK1 kinase (PDK1 Kinase Alpha Screen Assay) was below 5 µM. Also, the EC50 in the assay on PC-3 cells (setting [1]) was below 5 µM.

With `C#Cc1cc(OC2CCN(C(C)C)CC2)c2nc(Nc3ccc(N4CCOCC4)cc3)ncc2c1` [Compound 698, 6-ethynyl-8-(1-isopropylpiperidin-4-yloxy)-N-(4-morpholinophenyl)quinazolin-2-amine], on PDK1 kinase (PDK1 Kinase Alpha Screen Assay), the IC50 was below 5 µM. The EC50 in the assay with PC-3 cells (setting [1]) was below 5 µM.

Consider `CC(C)N1CCC(Oc2cc(C#N)cc3cnc(Nc4ccc(N5CCOCC5)cc4)nc23)CC1` [Compound 699, 8-(1-isopropylpiperidin-4-yloxy)-2-(4-morpholinophenylamino)quinazoline-6-carbonitrile], for which the IC50 on PDK1 kinase (PDK1 Kinase Alpha Screen Assay) is below 5 µM. For the same compound, the EC50 with PC-3 cells (setting [1]) was below 5 µM.

`C#Cc1cc(OC2CCNCC2)c2nc(Nc3ccc(N4CCOCC4)cc3)ncc2c1` [Compound 700, 6-ethynyl-N-(4-morpholinophenyl)-8-(piperidin-4-yloxy)quinazolin-2-amine]: the IC50 at PDK1 kinase (PDK1 Kinase Alpha Screen Assay) was below 5 µM. The EC50 in the assay with PC-3 cells (setting [1]) is below 5 µM.

For `N#Cc1cc(OC2CCNCC2)c2nc(Nc3ccc(N4CCOCC4)cc3)ncc2c1` [Compound 701, 2-(4-morpholinophenylamino)-8-(piperidin-4-yloxy)quinazoline-6-carbonitrile], at PDK1 kinase (PDK1 Kinase Alpha Screen Assay), the IC50 was below 5 µM. In the assay with PC-3 cells (setting [1]), the EC50 was below 5 µM.

In the case of `c1csc(-c2cc(OC3CCNCC3)c3nc(Nc4ccc(N5CCOCC5)cc4)ncc3c2)n1` [Compound 702, N-(4-morpholinophenyl)-8-(piperidin-4-yloxy)-6-(thiazol-2-yl)quinazolin-2-amine], the IC50 on PDK1 kinase (PDK1 Kinase Alpha Screen Assay) is below 5 µM. Also, in the assay on PC-3 cells (setting [1]), the EC50 was below 5 µM.

Regarding `c1cc(N2CCOCC2)ccc1Nc1ncc2cc(C3CC3)cc(OC3CCNCC3)c2n1` [Compound 703, 6-cyclopropyl-N-(4-mropholinophenyl)-8-(piperidin-4-yloxy)quinazolin-2-amine], the IC50 at PDK1 kinase (PDK1 Kinase Alpha Screen Assay) is below 5 µM. The EC50 with PC-3 cells (setting [1]) is below 5 µM.

Turning to `CC(C)N1CCC(Oc2cc(C3CC3)cc3cnc(Nc4ccc(N5CCOCC5)cc4)nc23)CC1` [Compound 704, 6-cyclopropyl-8-(1-isopropylpiperidin-4-yloxy)-N-(4-morpholinophenyl)quinazolin-2-amine], on PDK1 kinase (PDK1 Kinase Alpha Screen Assay), the IC50 is below 5 µM. In addition, the EC50 with PC-3 cells (setting [1]) is below 5 µM.

With `C#Cc1cc(OC2CCNCC2)c2nc(Nc3ccc(C(=O)N4CCOCC4)cc3)ncc2c1` [Compound 705, (4-(6-ethynyl-8-(piperidin-4-yloxy)quinazolin-2-ylamino)phenyl)(morpholino)methanone], the half-maximal inhibitory concentration (IC50) on PDK1 kinase (PDK1 Kinase Alpha Screen Assay) is below 5 µM. For the same compound, the EC50 with PC-3 cells (setting [1]) is below 5 µM.

As to `c1csc(-c2cc(OC3CNC3)c3nc(Nc4ccc(N5CCOCC5)cc4)ncc3c2)n1` [Compound 706, 8-(azetidin-3-yloxy)-N-(4-morpholinophenyl)-6-(thiazol-2-yl)quinazolin-2-amine], the IC50 at PDK1 kinase (PDK1 Kinase Alpha Screen Assay) was below 5 µM. Besides, in the assay with PC-3 cells (setting [1]), the EC50 is below 5 µM.

Regarding `C#Cc1cc(OC2CNC2)c2nc(Nc3ccc(N4CCOCC4)cc3)ncc2c1` [Compound 707, 8-(azetidin-3-yloxy)-6-ethynyl-N-(4-morpholinophenyl)quinazolin-2-amine], at PDK1 kinase (PDK1 Kinase Alpha Screen Assay), the IC50 was below 5 µM. Moreover, the EC50 with PC-3 cells (setting [2]) is below 5 µM.

As for `C#Cc1cc(OC2CCNCC2)c2nc(Nc3ccc(C(=O)N4CCOCC4)cc3)ncc2c1Cl` [Compound 708, (4-(5-chloro-6-ethynyl-8-(piperidin-4-yloxy)quinazolin-2-ylamino)phenyl)(morpholino)methanone], the concentration for half-maximal inhibition (IC50) on PDK1 kinase (PDK1 Kinase Alpha Screen Assay) was below 5 µM. For the same compound, in the assay with PC-3 cells (setting [2]), the EC50 is below 5 µM.

With `CC(C)Cn1cc(-c2ccc3cnc(Nc4ccc(S(=O)(=O)NCCCN5CCCC5)cc4)nc3c2)cn1` [Compound 709, 4-(7-(1-isobutyl-1H-pyrazol-4-yl)quinazolin-2-ylamino)-N-(3-(pyrrolidin-1-yl)propyl)benzenesulfonamide], the IC50 at PDK1 kinase (PDK1 Kinase Alpha Screen Assay) was below 5 µM. The EC50 in the assay with PC-3 cells (setting [2]) was below 5 µM.

In the case of `CC(C)Cn1cc(-c2ccc3cnc(Nc4ccc(S(=O)(=O)NCCN5CCOCC5)cc4)nc3c2)cn1` [Compound 710, 44-(7-(1-isobutyl-1H-pyrazol-4-yl)quinazolin-2-ylamino)-N-(2-morpholinoethyl)benzenesulfonamide], the IC50 at PDK1 kinase (PDK1 Kinase Alpha Screen Assay) was below 5 µM. Further, in the assay with PC-3 cells (setting [2]), the EC50 was below 5 µM.

Regarding `CC(C)Cn1cc(-c2ccc3cnc(Nc4ccc(S(=O)(=O)NCCN5CCCCC5)cc4)nc3c2)cn1` [Compound 711, 4-(7-(1-isobutyl-1H-pyrazol-4-yl)quinazolin-2-ylamino)-N-(2-(piperidin-1-yl)ethyl)benzenesulfonamide], at PDK1 kinase (PDK1 Kinase Alpha Screen Assay), the IC50 was below 5 µM. In addition, the EC50 in the assay with PC-3 cells (setting [2]) is below 5 µM.

Consider `CC(C)Cn1cc(-c2ccc3cnc(Nc4ccc(S(=O)(=O)NCCN5CCN(C)CC5)cc4)nc3c2)cn1` [Compound 712, 4-(7-(1-isobutyl-1H-pyrazol-4-yl)quinazolin-2-ylamino)-N-(2-(4-methylpiperazin-1-yl)ethyl)benzenesulfonamide], for which the IC50 at PDK1 kinase (PDK1 Kinase Alpha Screen Assay) is below 5 µM. Also, the EC50 with PC-3 cells (setting [2]) was below 5 µM.

On to `CC(C)Cn1cc(-c2ccc3cnc(Nc4ccc(S(=O)(=O)NCCN5CCCC5)cc4)nc3c2)cn1` [Compound 713, 4-(7-(1-isobutyl-1H-pyrazol-4-yl)quinazolin-2-ylamino)-N-(2-(pyrrolidin-1-yl)ethyl)benzenesulfonamide], for which, at PDK1 kinase (PDK1 Kinase Alpha Screen Assay), the IC50 was below 5 µM. For the same compound, in the assay on PC-3 cells (setting [2]), the EC50 is below 5 µM.

In the case of `C#Cc1cc2cnc(Nc3ccc(S(N)(=O)=O)cc3)nc2cc1OC1CCN(C(C)C)CC1` [Compound 714, 4-(6-ethynyl-7-(1-isopropylpiperidin-4-yloxy)quinazolin-2-ylamino)benzenesulfonamide], the half-maximal inhibitory concentration (IC50) on PDK1 kinase (PDK1 Kinase Alpha Screen Assay) was below 5 µM. In the assay on PC-3 cells (setting [2]), the EC50 was below 5 µM.

Turning to `Cn1cc(-c2cc(Cl)cc3cnc(Nc4ccc(S(N)(=O)=O)cc4)nc23)cn1` [Compound 926, 4-(6-chloro-8-(1-methyl-1H-pyrazol-4-yl)quinazolin-2-ylamino)benzenesulfonamide], the half-inhibitory concentration (IC50) on PDK1 kinase is below 5 µM. Further, in the assay with PC-3 cells (PC-3, PC3 cells), the EC50 is below 5 µM.

With `NS(=O)(=O)c1ccc(Nc2ncc3cc(Cl)cc(-c4ccc(NCCN5CCCC5)nc4)c3n2)cc1` [Compound 927, 4-(6-choro-8-(6-(2-(pyrrolidin-1-yl)ethylamino)pyridin-3-yl)quinazolin-2-ylamino)benzenesulfonamide], on PDK1 kinase, the IC50 is below 5 µM. Moreover, in the assay on PC-3 cells (PC-3, PC3 cells), the EC50 is below 5 µM.

As to `Nc1ncc(-c2cccc3cnc(Nc4ccc(S(N)(=O)=O)cc4)nc23)cc1C(F)(F)F` [Compound 929, 4-(8-(6-amino-5-(trifluoromethyl)pyridin-3-yl)quinazolin-2-ylamino)benzenesulfonamide], the IC50 on PDK1 kinase is below 5 µM. For the same compound, the EC50 with PC-3 cells (PC-3, PC3 cells) was below 5 µM.

One may read the IC50 as the concentration that gives 50% inhibition.
